Measurements: patent publication US12077503B2, “Substituted cyclic amides and their use as herbicides” (FMC CORPORATION, priority 2015, dated 2024)

Tests used:
Format in all cases: in vivo
Kochia (Kochia scoparia) [1] = experiment: Test A preemergence; details: for Plant response rating, Kochia: 125 g ai/ha; for Kochia plant response rating (0 to 100 scale, 0 is no effect, 100 is complete control): 500 g ai/ha, visual injury approx. 10 d
From the text: (§1) Seeds of plant species selected from barnyardgrass (Echinochloa crus-galli), Kochia (Kochia scoparia), ragweed (common ragweed, Ambrosia elatior), ryegrass, Italian (Italian ryegrass, Lolium multiflorum), crabgrass, large (Digitaria sanguinalis), giant foxtail (Setaria faberii), green foxtail (Setaria viridis), morningglory (Ipomoea spp.), pigweed (Amaranthus retroflexus), velvetleaf (Abutilon theophrasti), wheat (Triticum aestivum), and corn (Zea mays) were planted into a blend of loam soil and sand and treated preemergence with a directed soil spray using test chemicals formulated in anon-phytotoxic solvent mixture which included a surfactant.
(§2) At the same time, plants selected from these crop and weed species and also blackgrass (Alopecurus myosuroides), and Galium (catchweed bedstraw, Galium aparine) were planted in pots containing the same blend of loam soil and sand and treated with postemergence applications of test chemicals formulated in the same manner. Plants ranged in height from 2 to 10 cm and were in the one- to two-leaf stage for the postemergence treatment. Treated plants and untreated controls were maintained in a greenhouse for approximately 10 d, after which time all treated plants were compared to untreated controls and visually evaluated for injury. Plant response ratings, summarized in Table A, are based on a 0 to 100 scale where 0 is no effect and 100 is complete control. A dash (-) response means no test result.

[2] = system: barnyardgrass (Echinochloa crus-galli); experiment: Test A preemergence; details: for Plant response rating, Barnyardgrass: 125 g ai/ha; for Barnyardgrass plant response rating (0 to 100 scale, 0 is no effect, 100 is complete control): 500 g ai/ha, visual injury approx. 10 d
From the text: as §1, §2

[3] = system: giant foxtail (Setaria faberii); experiment: Test A preemergence; details: for Plant response rating, Foxtail, Giant: 125 g ai/ha; for Foxtail, Giant plant response rating (0 to 100 scale, 0 is no effect, 100 is complete control): 500 g ai/ha, visual injury approx. 10 d
From the text: as §1, §2

[4] = system: pigweed (Amaranthus retroflexus); experiment: Test A preemergence; details: for Plant response rating, Pigweed: 125 g ai/ha; for Pigweed plant response rating (0 to 100 scale, 0 is no effect, 100 is complete control): 500 g ai/ha, visual injury approx. 10 d
From the text: as §1, §2

[5] = system: ragweed (common ragweed, Ambrosia elatior); experiment: Test A preemergence; details: for Plant response rating, Ragweed: 125 g ai/ha; for Ragweed plant response rating (0 to 100 scale, 0 is no effect, 100 is complete control): 500 g ai/ha, visual injury approx. 10 d
From the text: as §1, §2

[6] = system: ryegrass, Italian (Italian ryegrass, Lolium multiflorum); experiment: Test A preemergence; details: for Plant response rating, Ryegrass, Italian: 125 g ai/ha; for Ryegrass, Italian plant response rating (0 to 100 scale, 0 is no effect, 100 is complete control): 500 g ai/ha, visual injury approx. 10 d
From the text: as §1, §2

[7] = system: Galium (catchweed bedstraw, Galium aparine); experiment: Test A postemergence; details: for Galium plant response rating: 125 g ai/ha, visual injury rating on 0 to 100 scale (0 no effect, 100 complete control), approx. 10 d; for Plant response rating, Galium: 500 g ai/ha
From the text: as §1, §2

Kochia (Kochia scoparia) [8] = experiment: Test A postemergence; details: for Kochia plant response rating: 125 g ai/ha, visual injury rating on 0 to 100 scale (0 no effect, 100 complete control), approx. 10 d; for Plant response rating, Kochia: 500 g ai/ha
From the text: as §1, §2

[9] = system: barnyardgrass (Echinochloa crus-galli); experiment: Test A postemergence; details: for Barnyardgrass plant response rating: 125 g ai/ha, visual injury rating on 0 to 100 scale (0 no effect, 100 complete control), approx. 10 d; for Plant response rating, Barnyardgrass: 500 g ai/ha
From the text: as §1, §2

[10] = system: blackgrass (Alopecurus myosuroides); experiment: Test A postemergence; details: for Blackgrass plant response rating: 125 g ai/ha, visual injury rating on 0 to 100 scale (0 no effect, 100 complete control), approx. 10 d; for Plant response rating, Blackgrass: 500 g ai/ha
From the text: as §1, §2

corn (Zea mays) = experiment: Test A postemergence; details: for Corn plant response rating: 125 g ai/ha, visual injury rating on 0 to 100 scale (0 no effect, 100 complete control), approx. 10 d; for Plant response rating, Corn: 500 g ai/ha
From the text: as §1, §2

[11] = system: giant foxtail (Setaria faberii); experiment: Test A postemergence; details: for Foxtail, Giant plant response rating: 125 g ai/ha, visual injury rating on 0 to 100 scale (0 no effect, 100 complete control), approx. 10 d; for Plant response rating, Foxtail, Giant: 500 g ai/ha
From the text: as §1, §2

[12] = system: pigweed (Amaranthus retroflexus); experiment: Test A postemergence; details: for Pigweed plant response rating: 125 g ai/ha, visual injury rating on 0 to 100 scale (0 no effect, 100 complete control), approx. 10 d; for Plant response rating, Pigweed: 500 g ai/ha
From the text: as §1, §2

[13] = system: ragweed (common ragweed, Ambrosia elatior); experiment: Test A postemergence; details: for Ragweed plant response rating: 125 g ai/ha, visual injury rating on 0 to 100 scale (0 no effect, 100 complete control), approx. 10 d; for Plant response rating, Ragweed: 500 g ai/ha
From the text: as §1, §2

[14] = system: ryegrass, Italian (Italian ryegrass, Lolium multiflorum); experiment: Test A postemergence; details: for Ryegrass, Italian plant response rating: 125 g ai/ha, visual injury rating on 0 to 100 scale (0 no effect, 100 complete control), approx. 10 d; for Plant response rating, Ryegrass, Italian: 500 g ai/ha
From the text: as §1, §2

[15] = system: wheat (Triticum aestivum); experiment: Test A postemergence; details: for Wheat plant response rating: 125 g ai/ha, visual injury rating on 0 to 100 scale (0 no effect, 100 complete control), approx. 10 d; for Plant response rating, Wheat: 500 g ai/ha
From the text: as §1, §2

[16] = Preemergence, visual injury after approximately 10 d, 0 to 100 scale where 0 is no effect and 100 is complete control
[17] = Postemergence, 0 to 100 scale where 0 is no effect and 100 is complete control
[18] = preemergence, 0 to 100 scale (0 no effect, 100 complete control)
[19] = postemergence, 0 to 100 scale, 0 no effect, 100 complete control

For `O=C1NCC(c2cc(Br)cs2)C1C(=O)Nc1cccc(F)c1F` (racemic) [Compound 510], the “Plant response rating, Kochia” value (Kochia (Kochia scoparia) [1]; [16]) was 30, the “Kochia plant response rating (0 to 100 scale, 0 is no effect, 100 is complete control)” value (Kochia (Kochia scoparia) [1]; Preemergence) was 50 and the “Plant response rating, Barnyardgrass” value [2, 16] was 60. For the same molecule, the “Barnyardgrass plant response rating (0 to 100 scale, 0 is no effect, 100 is complete control)” value ([2]; Preemergence) was 80, the “Plant response rating, Foxtail, Giant” value [3, 16] was 60 and the “Foxtail, Giant plant response rating (0 to 100 scale, 0 is no effect, 100 is complete control)” value ([3]; Preemergence) was 70. The “Plant response rating, Pigweed” value [4, 16] was 0, the “Pigweed plant response rating (0 to 100 scale, 0 is no effect, 100 is complete control)” value ([4]; Preemergence) was 0 and the “Plant response rating, Ragweed” value [5, 16] was 30. The “Ragweed plant response rating (0 to 100 scale, 0 is no effect, 100 is complete control)” value ([5]; Preemergence) was 50, the “Plant response rating, Ryegrass, Italian” value [6, 16] was 0 and the “Ryegrass, Italian plant response rating (0 to 100 scale, 0 is no effect, 100 is complete control)” value ([6]; Preemergence) was 10. For the same molecule, the “Galium plant response rating” value ([7]; postemergence) was 0, the “Plant response rating, Galium” value [7, 17] was 0 and the “Kochia plant response rating” value (Kochia (Kochia scoparia) [8]; postemergence) was 0. The “Plant response rating, Kochia” value (Kochia (Kochia scoparia) [8]; [17]) was 40, the “Barnyardgrass plant response rating” value ([9]; postemergence) was 60 and the “Plant response rating, Barnyardgrass” value [9, 17] was 70. The “Blackgrass plant response rating” value ([10]; postemergence) was 0, the “Plant response rating, Blackgrass” value [10, 17] was 40 and the “Corn plant response rating” value (corn (Zea mays); postemergence) was 0. For the same molecule, the “Plant response rating, Corn” value (corn (Zea mays); [17]) was 0, the “Foxtail, Giant plant response rating” value ([11]; postemergence) was 10 and the “Plant response rating, Foxtail, Giant” value [11, 17] was 30. For the same molecule, the “Pigweed plant response rating” value ([12]; postemergence) was 0, the “Plant response rating, Pigweed” value [12, 17] was 0 and the “Ragweed plant response rating” value ([13]; postemergence) was 0. For the same molecule, the “Plant response rating, Ragweed” value [13, 17] was 30, the “Ryegrass, Italian plant response rating” value ([14]; postemergence) was 0 and the “Plant response rating, Ryegrass, Italian” value [14, 17] was 20. The “Wheat plant response rating” value ([15]; postemergence) was 0 and the “Plant response rating, Wheat” value [15, 17] was 0.

`CC(=O)c1ccccc1NC(=O)C1C(=O)NCC1c1ccc(F)c(F)c1` (stereo not shown) [Compound 418] was tested, and the “Plant response rating, Kochia” value (Kochia (Kochia scoparia) [1]; [18]) was 0, the “Kochia plant response rating (0 to 100 scale, 0 is no effect, 100 is complete control)” value (Kochia (Kochia scoparia) [1]; Preemergence) was 0 and the “Plant response rating, Barnyardgrass” value [2, 18] was 0. For the same molecule, the “Barnyardgrass plant response rating (0 to 100 scale, 0 is no effect, 100 is complete control)” value ([2]; Preemergence) was 0, the “Plant response rating, Foxtail, Giant” value [3, 18] was 0 and the “Foxtail, Giant plant response rating (0 to 100 scale, 0 is no effect, 100 is complete control)” value ([3]; Preemergence) was 0. The “Plant response rating, Pigweed” value [4, 18] was 0, the “Pigweed plant response rating (0 to 100 scale, 0 is no effect, 100 is complete control)” value ([4]; Preemergence) was 0 and the “Plant response rating, Ragweed” value [5, 18] was 0. The “Ragweed plant response rating (0 to 100 scale, 0 is no effect, 100 is complete control)” value ([5]; Preemergence) was 0, the “Plant response rating, Ryegrass, Italian” value [6, 18] was 0 and the “Ryegrass, Italian plant response rating (0 to 100 scale, 0 is no effect, 100 is complete control)” value ([6]; Preemergence) was 0. The “Galium plant response rating” value ([7]; postemergence) was 0, the “Plant response rating, Galium” value [7, 19] was 0 and the “Kochia plant response rating” value (Kochia (Kochia scoparia) [8]; postemergence) was 0. The “Plant response rating, Kochia” value (Kochia (Kochia scoparia) [8]; [19]) was 0, the “Barnyardgrass plant response rating” value ([9]; postemergence) was 0 and the “Plant response rating, Barnyardgrass” value [9, 19] was 0. The “Blackgrass plant response rating” value ([10]; postemergence) was 0, the “Plant response rating, Blackgrass” value [10, 19] was 0 and the “Corn plant response rating” value (corn (Zea mays); postemergence) was 0. The “Plant response rating, Corn” value (corn (Zea mays); [19]) was 0, the “Foxtail, Giant plant response rating” value ([11]; postemergence) was 0 and the “Plant response rating, Foxtail, Giant” value [11, 19] was 0. The “Pigweed plant response rating” value ([12]; postemergence) was 0, the “Plant response rating, Pigweed” value [12, 19] was 0 and the “Ragweed plant response rating” value ([13]; postemergence) was 0. For the same molecule, the “Plant response rating, Ragweed” value [13, 19] was 0, the “Ryegrass, Italian plant response rating” value ([14]; postemergence) was 0 and the “Plant response rating, Ryegrass, Italian” value [14, 19] was 0. For the same molecule, the “Wheat plant response rating” value ([15]; postemergence) was 0 and the “Plant response rating, Wheat” value [15, 19] was 0.
